pKi: −log10 of the molar value. Where “and” joins values, the source holds several entries; their conditions need not be identical. Equal values may be shown once.
How the values were obtained:
[1] = target: T1, Muscarinic acetylcholine receptor M1 (Rattus norvegicus, UniProt P08482); assay: Displacement of [3H]pirenzepine from muscarinic M1 receptor of rat cortex homogenates.
T1 sequence (P08482 whole entry): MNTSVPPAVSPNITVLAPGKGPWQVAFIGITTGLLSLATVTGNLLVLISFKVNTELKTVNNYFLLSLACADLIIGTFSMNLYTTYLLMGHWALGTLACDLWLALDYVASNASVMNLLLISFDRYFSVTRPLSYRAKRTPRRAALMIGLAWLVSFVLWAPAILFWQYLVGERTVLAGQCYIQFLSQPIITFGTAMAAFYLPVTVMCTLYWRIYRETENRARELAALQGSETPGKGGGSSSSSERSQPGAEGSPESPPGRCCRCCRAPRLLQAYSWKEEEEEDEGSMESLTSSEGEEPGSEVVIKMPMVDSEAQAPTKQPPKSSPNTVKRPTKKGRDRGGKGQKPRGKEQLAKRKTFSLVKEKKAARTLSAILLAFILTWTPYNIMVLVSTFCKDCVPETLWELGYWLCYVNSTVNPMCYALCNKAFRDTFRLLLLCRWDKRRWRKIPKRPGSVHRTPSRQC

[2] = target: T2, Muscarinic acetylcholine receptor M2 (Rattus norvegicus, UniProt P10980); assay: Displacement of [3H]QNB (quinuclidinyl benzylate) from muscarinic M2 receptor of rat heart homogenates.; format: tissue-based
T2 sequence (P10980 whole entry): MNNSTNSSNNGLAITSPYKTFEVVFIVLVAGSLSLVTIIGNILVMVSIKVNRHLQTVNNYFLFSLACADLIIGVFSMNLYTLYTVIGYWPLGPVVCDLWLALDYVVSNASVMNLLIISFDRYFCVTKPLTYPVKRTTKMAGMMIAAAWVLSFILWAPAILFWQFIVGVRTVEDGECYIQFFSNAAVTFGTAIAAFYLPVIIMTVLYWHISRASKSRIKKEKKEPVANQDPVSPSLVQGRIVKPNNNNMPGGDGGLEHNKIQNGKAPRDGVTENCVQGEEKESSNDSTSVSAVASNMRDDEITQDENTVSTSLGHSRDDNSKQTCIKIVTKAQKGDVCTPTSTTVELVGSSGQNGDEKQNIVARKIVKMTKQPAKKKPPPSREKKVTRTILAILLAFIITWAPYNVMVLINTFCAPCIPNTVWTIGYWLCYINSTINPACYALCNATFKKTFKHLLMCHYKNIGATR

[3] = test system: Mus musculus; assay: Anticonvulsant activity was determined in MES model, after 1 hour post administration in mice; format: functional

Structure (SMILES)	pKi [1]	pKi [2]	ED50 [3]
CC(C)N(CC#CCN1C(=O)CC(c2ccccc2)(c2ccccc2)C1=O)C(C)C	6.28	6.36	17.5 mg/kg and 40 µmol/kg
CCN(CC)CC#CCN1C(=O)NC2(CCc3ccccc32)C1=O (stereo not drawn)	5.98	< 5.00	55.4 mg/kg and 153 µmol/kg
CCN(CC)CC#CCN1C(=O)CC2(C1=O)c1ccccc1CCc1ccccc12	6.34	5.68	9.6 mg/kg and 22 µmol/kg
CCN(CC)CC#CCN1C(=O)c2ccccc2C1=O	7.52	7.00	
O=C1NC(=O)C(c2ccccc2)(c2ccccc2)N1 [PHENYTOIN]			16.2 mg/kg
CCN(CC)CC#CCN1C(=O)CC2(C1=O)c1ccccc1-c1ccccc12	5.79	< 5.00	23.7 mg/kg and 58 µmol/kg
O=C1CC2(CCc3ccccc32)C(=O)N1CC#CCN1CCCC1 (stereo not drawn)	5.80	< 5.00	> 600 mg/kg
CCN(CC)CC#CCN1C(=O)CC(c2ccccc2)(c2ccccc2)C1=O	6.92	6.42	20.1 mg/kg and 49 µmol/kg
CCN(CC)CC#CCN1C(=O)CC2(CCc3ccccc32)C1=O (stereo not drawn)	6.17	< 5.00	
CCN(CC)CC#CCN1C(=O)CC(c2ccccc2)C1=O (stereo not drawn)	5.64	< 5.00	48.9 mg/kg and 126 µmol/kg
O=C1NC(c2ccccc2)(c2ccccc2)C(=O)N1CC#CCN1CCCC1	6.19	< 5.00	
CCN(CC)CC#CCN1C(=O)NC(c2ccccc2)(c2ccccc2)C1=O	6.42	6.02	83.6 mg/kg
CC(C)N(CC#CCN1C(=O)CC2(C1=O)c1ccccc1-c1ccccc12)C(C)C	5.79	< 5.00	
